Experimental data from patent US9643971B2 (GALLEON PHARMACEUTICALS, INC., priority 2013, dated 2017).
“Also recorded” adds a separate entry of the source. Where a name gives a salt, the structure may show the parent alone.

Columns and labels:
anesthetized rat = assay: Anesthetized rat spirometry screening assay; format: in vivo; details: for AUC MV Inc (2 min) (ratio vs. std*): 2 minute AUC of minute volume increase vs. comparator N-[2,6-di-(n-propylamino)-[1,3]pyrimidin-4-yl]-N,O-dimethyl-hydroxylamine
Excerpt: Effect of Compounds of the Invention on Respiratory Rate (RR), Tidal Volume (VT), and the Product Minute Volume Using an Anesthetized Rat Spirometry Screening Assay
Anesthetized rats provide a quick method of screening compounds for respiratory and cardiovascular activity. In contrast to the conscious rat model, this model offers an experimental set up with less variation in the baseline cardiovascular and respiratory measures. Compounds screened in this assay may be examined in a conscious rat model.
Rats were initially anesthetized with 3% isoflurane (inhaled) and femoral artery and vein cannulas were surgically inserted. Once cannulated, the rats were transitioned to urethane anesthesia (1.5 g/kg; i.v.) and a tracheal cut-down was performed. After placing the tracheal cannula, it was connected to a pneumotachometer to record respiratory airflow from which respiratory rate (RR), tidal volume (VT), and their product minute volume were derived. After the surgical preparation was complete, animals were allowed to stabilize for 30 minutes while respiratory rate, tidal volume, minute volume, blood pressure and heart rate were recorded continuously. Arterial blood gases (ABG) were obtained from arterial blood collected from the femoral artery. ABG measurements were taken before and 6 minutes after vehicle and each dose of compound administered. Compounds being screened were administered via bolus injections through the venous cannula followed by a saline flush (total time of administration is approximately 30 seconds), and the animal was monitored for at least 6 minutes for changes in cardiovascular efforts. Compounds were prepared in formulations identified to ensure optimal solubility. As such, vehicle controls were matched for the formulation of each compound tested. Dosing of the compound being screened was 0.1 and 0.3 mg/kg. The next dose was not administered until all cardiovascular and respiratory measures had returned to baseline levels. The positive control compounds used were N-[4,6-di-(n-propylamino)-[1,3,5]triazin-2-yl]-N,O-dimethyl-hydroxylamine or N-[2,6-di-(n-propylamino)-[1,3]pyrimidin-4-yl]-N,O-dimethyl-hydroxylamine (both administered at the end of each screening experiment (0.3 mg/kg dose) to validate the experiment and also to serve as a measure with which the compound being screened could be compared.
Data were analyzed by collecting cardiovascular and respiratory data in 30 second averages (BINs). Data were plotted 2 minutes before challenge and then 6 minutes after challenge.

[1] = system: rats chronically treated with morphine; assay: Apnea, ventilation and sleep structure in rats chronically treated with morphine (whole-body plethysmography); format: in vivo, Zucker rats; details: oral gavage, hydrochloride; for apnea frequency / number of apneas per hr expressed as a percent change from baseline (pre-drug): versus treatment with a vehicle
Excerpt: The objective of this study was to quantify the effects of selected compounds of this invention on apnea, ventilation and sleep structure in a rat model. The study consisted of two treatment conditions: (1) chronic morphine and test compound administered orally, and (2) chronic morphine and oral vehicle.
Adult male lean Zucker rats were anesthetized for electroencephalogram (EEG) and electromyogram (EMG) telemeter implantation. At least one week was permitted post-surgery before animals were used further. Morphine sulfate was added to the drinking water of singly housed rats beginning with 0.1 mg/ml morphine and increasing the concentration in increments, so that a final concentration of 0.6 mg/ml was achieved within 2 weeks. All respiratory measurements were made while animals were unrestrained in whole-body plethysmography chambers to permit animals to sleep and move freely. To avoid eliciting withdrawal, morphine water was continuously available during each plethysmography experiment. Minute volume and the number of central sleep apneas (CSA) were measured during all treatment conditions. A period of at least 1 to 1.5 h was permitted for animals to acclimate to the chamber before data collection began. The biopotential telemeters and their receivers were placed directly under the plethysmographic chambers and were used to continuously to capture EEG, EMG, and body temperature signals. Only data collected between the hours of 10 am to 4:30 pm were used in the final analysis to control for the effects of circadian rhythm on breathing.
Test compound in vehicle or an equivalent volume of vehicle was administered via an oral gavage tube at 12 pm. Data collected between 10 am and 12 pm represented baseline (pre-drug) conditions. Data collected between […] represented post-drug conditions. Analyses of the EEG and EMG waveforms for the purpose of staging sleep-wake behavior in rats as awake, NREM sleep, and REM sleep were based on previous sleep studies involving rodents. Central apneas were defined as a respiratory cycle period that was more than or equal to twice the average cycle period during baseline recordings. Percent time in each sleep-wake state, minute volume, and central sleep apnea counts were compared between treatment groups using a two-way ANOVA (factors: drug treatment and time). Breathing data during wakefulness was not analyzed because movement prevents measurement of accurate volumes when using whole-body plethysmography. When differences were detected with ANOVA, Student-Neuman-Keuls post hoc tests were run for all main effects and interactions. Differences were considered significant when p<0.05. Values are expressed as means±SE.

in vitro = details: male, rat, microsomes
[2] = In vitro metabolic stability in human liver microsomes (HLM); details: both, human, liver microsomes

Compound | AUC MV Inc (2 min) (ratio vs. std*) (anesthetized rat) [ratio vs. std] | half-life at 5 μM (in vitro) [h] | half-life at 5 μM [2] [h] | further results
CCCNc1nc(NC)c2nc(NCCC)nc(NC)c2n1.Cl [Compound 27a, N^4,N^8-Dimethyl-N^2,N^6-di-n-propyl-pyrimido[5,4-d]pyrimidine-2,4,6,8-tetraamine hydrochloride] | 1.22 | 2.27 | 2.12 | duration of increase in minute ventilation (anesthetized rat; anesthetized rat, i.v. bolus): approximately 2 minutes; effect on blood pressure (anesthetized rat; anesthetized rat, i.v. bolus): minimal effects; effect on minute ventilation above baseline values (anesthetized rat; anesthetized rat, i.v. bolus): increase; effect on pulse rate (anesthetized rat; anesthetized rat, i.v. bolus): minimal effects; effect on respiratory rate (anesthetized rat; anesthetized rat, i.v. bolus): stimulatory effects; dose dependence of effect on minute volume (anesthetized rat; based on a two-minute average): dose-dependent effect; effect compared to a reference compound as measured by area-under-curve (anesthetized rat; minute volume, two-minute average): greater effect; apnea frequency [1]: reduced; also recorded: decreased; number of apneas per hr expressed as a percent change from baseline (pre-drug) [1]: reduced; also recorded: decreased; minute volume compared to a vehicle-treated group [1]: did not cause an increase; also recorded: do not cause increases; number of apneas per hr versus vehicle [1]: reduced; also recorded: decreased; ventilation per unit time compared to vehicle [1]: did not cause an increase; also recorded: do not cause an increase
CCCNc1nc(N2CCCCC2)nc2c(NCCC)nc(NC)nc12 [Compound 43a, N^2-Methyl-N^4,N^8-di-n-propyl-6-(piperidin-1-yl)-pyrimido[5,4-d]pyrimidine-2,4,8-triamine] | 0.20 | 1.15 | 1.63 | 
CCCNc1nc(N2CCCC2)nc2c(NCCC)nc(NC)nc12 [Compound 45a, N^2-Methyl-N^4,N^8-di-n-propyl-6-pyrrolidin-1-yl-pyrimido[5,4-d]pyrimidine-2,4,8-triamine] | 0.41 | > 8.33 | > 8.33 | 
CCCNc1nc(N2CCC(OC)CC2)nc2c(NCCC)nc(NC)nc12 [Compound 47a, N^2-Methyl-N^4,N^8-di-n-propyl-6-(4-methoxy-piperidin-1-yl)-pyrimido[5,4-d]pyrimidine-2,4,8-triamine] | 0.00 | 1.77 | 1.83 | 
CCCNc1nc(NCc2cccc(Cl)c2C)nc2c(NCCC)nc(NC)nc12 [Compound 49a, N^2-(3-Chloro-2-methyl-benzyl)-N^6-methyl-N^4,N^8-di-n-propyl-pyrimido[5,4-d]pyrimidine-2,4,6,8-tetraamine hydrochloride] | 0.11 | 1.4 | 3.17 | 
CCCNc1nc(NCc2ccc(Cl)c(Cl)c2)nc2c(NCCC)nc(NC)nc12 [Compound 51a, N^2-(3,4-Dichlorobenzyl)-N^6-methyl-N^4,N^8-di-n-propyl-pyrimido[5,4-d]pyrimidine-2,4,6,8-tetraamine] | 0.08 | 1.2 | 2.12 | 
CCCNc1nc(NCc2ccc(F)cc2)nc2c(NCCC)nc(NC)nc12 [Compound 53a, N^2-(4-Fluorobenzyl)-N^6-methyl-N^4,N^8-di-n-propyl-pyrimido[5,4-d]pyrimidine-2,4,6,8-tetraamine] | 0.06 | 1.57 | 1.32 | 
CCCNc1nc(NC)c2nc(Cl)nc(NC)c2n1 [Compound 54, 6-Chloro-N^4,N^8-dimethyl-N^2-n-propyl-pyrimido[5,4-d]pyrimidine-2,4,8-triamine] | 0.09 | 0.667 | 1.37 | 
CNc1nc(NC)c2nc(NC)nc(NC)c2n1.Cl [Compound 79a, N^2,N^4,N^6,N^8-Tetramethyl-pyrimido[5,4-d]pyrimidine-2,4,6,8-tetraamine hydrochloride] | 0.00 | 6.47 | > 8.33 | 
CCNc1nc(NC)c2nc(NCC)nc(NC)c2n1.Cl [Compound 81a, N^2,N^6-Diethyl-N^4,N^8-dimethyl-pyrimido[5,4-d]pyrimidine-2,4,6,8-tetraamine hydrochloride] | 0.00 | 4.57 | 3.3 | 
CCCCNc1nc(NC)c2nc(NCCCC)nc(NC)c2n1.Cl [Compound 83a, N^2,N^6-Di-n-butyl-N^4,N^8-dimethyl-pyrimido[5,4-d]pyrimidine-2,4,6,8-tetraamine hydrochloride] | 1.05 | 5.58 | 4.15 | 
CNc1nc(N(C)NC)nc2c(NC)nc(N(C)NC)nc12 [Compound 91, 2,6-bis-(N,N′-dimethyl-hydrazino)-N^4,N^8-dimethyl-pyrimido[5,4-d]pyrimidine-4,8-diamine] | 0.08 | 0.4 | 1.7 | 
CNc1nc(N(C)NC)nc2c(NC)nc(N(C)C)nc12 [Compound 93a, 6-(N,N′-Dimethyl-hydrazino)-N^2,N^2,N^4,N^8-tetramethyl-pyrimido[5,4-d]pyrimidine-2,4,8-triamine] | 0.03 | 0.233 | 1.35 | 
CCCNc1nc(NC)c2nc(-c3ccc(F)cc3)nc(NC)c2n1 [Compound 112a, N^4,N^8-Dimethyl-N^2-n-Propyl-6-(4-fluorophenyl)-pyrimido[5,4-d]pyrimidine-2,4,8-triamine] | 0.14 | 1.73 | 2.02 | 
CCCNc1nc(-c2ccc(F)cc2)nc2c(NCCC)nc(NC)nc12 [Compound 114a, N^2-Methyl-N^4,N^8-di-n-propyl-6-(4-fluoro-phenyl)-pyrimido[5,4-d]pyrimidine-2,4,8-triamine] | 0.05 | 4.15 | 5.08 | 
CCCCc1nc(NCCC)c2nc(NC)nc(NCCC)c2n1 [Compound 118a, 6-n-Butyl-N^2-methyl-N^4,N^8-di-n-propyl-pyrimido[5,4-d]pyrimidine-2,4,8-triamine] | 0.05 | 0.567 | 1.2 | 
CCCNc1nc(OC)nc2c(NCCC)nc(NC)nc12 [Compound 120a, 6-Methoxy-N^2-methyl-N^4,N^8-di-n-propyl-pyrimido[5,4-d]pyrimidine-2,4,8-triamine] | 0.36 | 1.37 | 1.9 | 
C=CCNc1nc(NC)nc2c(NCC=C)nc(NC)nc12.Cl [Compound 145a, N^4,N^8-Diallyl-N^2,N^6-dimethyl-pyrimido[5,4-d]pyrimidine-2,4,6,8-tetraamine hydrochloride] | 0.88 |  |  | apnea frequency [1]: reduced; also recorded: decreased; number of apneas per hr expressed as a percent change from baseline (pre-drug) [1]: reduced; also recorded: decreased; minute volume compared to a vehicle-treated group [1]: did not cause an increase; also recorded: do not cause increases; number of apneas per hr versus vehicle [1]: reduced; also recorded: decreased; ventilation per unit time compared to vehicle [1]: did not cause an increase; also recorded: do not cause an increase
